What was measured:
[1] = target: T1, rat A2A receptors (Rattus norvegicus, UniProt P30543); experiment: Displacement of [3H]CGS 21680 binding to A2A receptors in rat striatal membranes; conditions: for Ki: read-out: Ki rA2A
T1 construct: to A2A receptors from rat striatal membranes; from tissue; host or cells: rat striatal membranes
Procedure: (§1) All nonradioactive compounds were initially dissolved in DMSO and diluted with buffer to the final concentration, where the amount of DMSO never exceeded 2%. Incubations were terminated by rapid filtration over Whatman GF/B filters using a Brandell cell harvester. The tubes were rinsed three times with 3 mL buffer each.
(§2) At least six different concentrations of competitor, spanning 3 orders of magnitude adjusted appropriately for the IC50 value of each compound, were used. IC50 values, calculated with the nonlinear regression method implemented in Graph-Pad Prism (San Diego, CA) were converted to apparent Ki values as described by [Linden [1982]]. Hill coefficients of the tested compounds were in the range of 0.8–1.1.
(§3) At A2B receptors, two radioligand binding assays (Table 1) were used. Ki values of xanthine derivatives were determined in displacement of binding of the non-selective radioligands […], 8 (4-(2-[7-amino-2-{furyl}{1,2,4}triazolo{2,3-a}{1,3,5}tr nzyl)-8-phenyloxyacetate-1-propyl-xanthine), at human A2B receptors expressed in HEK-293 cell membranes [[Linden and Jacobson, 1998]]. In order to evaluate selectivity, selected derivatives were subjected to standard binding assays at A1, A2A, and A3 receptors. The initial screening utilized rat brain A1/A2A receptors (with radioligands [^3H]R-PIA and [^3H]CGS-21680), and selected compounds were examined at the recombinant human subtypes (Table 1), using [^3H]CPX ([^3H]8-cyclopentyl-1,3-dipropylxanthine) and ^125I-ZM 241385, ^125I-4-(2-[7-amino-2-[2-furyl][1,2,4]triazolo[2,3-a][1,3,5]triazin-5-yl-amino]ethyl)phenol) [[Palmer et al., 1996]].

[2] = target: T2, human A1 receptors (Homo sapiens, UniProt P30542); experiment: Binding at recombinant human A1 receptors expressed in HEK-293 cells vs [3H]CPX; conditions: recombinant human A1 in HEK-293 cells
T2 construct: expressed in transfected cells; host or cells: HEK-293
T2 sequence (P30542 1-326): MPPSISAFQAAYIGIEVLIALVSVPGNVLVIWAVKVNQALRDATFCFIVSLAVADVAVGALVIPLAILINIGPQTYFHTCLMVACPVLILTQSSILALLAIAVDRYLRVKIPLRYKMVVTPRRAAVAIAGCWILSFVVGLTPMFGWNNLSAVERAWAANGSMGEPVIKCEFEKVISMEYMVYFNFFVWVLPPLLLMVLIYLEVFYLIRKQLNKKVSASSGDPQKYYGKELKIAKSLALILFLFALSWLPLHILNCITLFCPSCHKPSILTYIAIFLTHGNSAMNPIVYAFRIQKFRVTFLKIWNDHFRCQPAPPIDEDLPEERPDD
Procedure: as §1, §2, §3

[3] = target: T3, human A2B receptors (Homo sapiens, UniProt P29275); experiment: Binding at human A2B receptors expressed in HEK-293 cells vs [125I]-ABOPX; conditions: read-out: Ki hA2B (converted)
T3 construct: expressed in transfected cells; host or cells: HEK-293
T3 sequence (P29275 1-332): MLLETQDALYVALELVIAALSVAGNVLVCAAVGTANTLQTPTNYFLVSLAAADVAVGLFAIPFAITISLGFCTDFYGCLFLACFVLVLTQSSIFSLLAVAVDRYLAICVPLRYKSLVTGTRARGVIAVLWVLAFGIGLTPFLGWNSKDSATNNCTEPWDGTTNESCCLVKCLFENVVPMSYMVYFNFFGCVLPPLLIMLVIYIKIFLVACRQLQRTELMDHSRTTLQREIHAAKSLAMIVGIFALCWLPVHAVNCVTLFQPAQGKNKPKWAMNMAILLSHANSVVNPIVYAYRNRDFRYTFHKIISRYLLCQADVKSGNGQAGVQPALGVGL
Procedure: The human A2B receptor cDNA was subcloned into the expression plasmid pDoubleTrouble [[Robeva et al., 1996a]]. The plasmid was amplified in competent JM109 cells and plasmid DNA isolated using Wizard Megaprep columns (Promega Corp., Madison, WI).
Transfected HEK cells were grown under 5% CO2/[…] humidified atmosphere at a temperature of 37°C. Colonies were selected by growth of cells in 0.6 mg/mL G418. Transfected cells were maintained in DMEM supplemented with Hams F12 nutrient mixture (1/1), 10% newborn calf serum, 2 mM glutamine, and containing 50 IU/mL penicillin, 50 μg/mL streptomycin, and 0.2 mg/mL Geneticin (G418, Boehringer Mannheim, Indianapolis, IN). Cells were cultured in 10 cm diameter round plates and subcultured when grown confluent (approximately after 72 h).
Confluent monolayers of HEK-A2B cells were washed with PBS followed by ice-cold Buffer A (10 mM HEPES, 10 mM EDTA, pH 7.4) with protease inhibitors ([…] benzamidine, […], and […] of each aprotinin, pepstatin, and leupeptin). The cells were homogenized in a Polytron (Brinkmann) for 20 sec, centrifuged at 30,000g, and the pellets washed twice with buffer HE (10 mM HEPES, 1 mM EDTA, pH 7.4 with protease inhibitors). The final pellet was resuspended in buffer HE, supplemented with 10% sucrose and frozen in aliquots at −80°C. For binding assays, membranes were thawed and diluted 5–10-fold with HE to a final protein concentration of approximately 1 mg/mL. To determine protein concentrations, membranes, and bovine serum albumin standards were dissolved in 0.2% NaOH/0.01% SDS and protein determined using fluorescamine fluorescence [[Stowell et al., 1978]]. […] To prepare [^125I-]ABOPX, […] of 1 mM ABOPX in methanol/1 M NaOH (20:1) was added to […] of 100 mM phosphate buffer, pH 7.3. One or 2 mCi of Na^125I was added, followed by […] of 1 mg/mL chloramine-T in water. After incubating for 20 min at room temperature, 50 mL of 10 mg/mL Na-metabisulfite in water was added the quench the reaction. The reaction products were applied to a C18 HPLC column using 4 mM phosphate, pH 6.0/methanol. After 5 min in 35% methanol, the methanol concentration was ramped to 100% over 15 min. Unreacted ABOPX eluted in 11–12 min; [^125I-]ABOPX eluted at 18–19 min in a yield of 50–60% of the initial ^125I. In equilibrium binding assays the ratio of [^127I/^125I-]ABOPX was 10–20/1. […] The incubation time was 3 h at 21°C. […] Competition experiments were carried out using 0.6 nM ^125I-ABOPX. Membranes were filtered on Whatman GF/C filters using a Brandell cell harvester (Gaithersburg, MD) and washed three times over 15–20 sec with ice-cold buffer (10 mM Tris, 1 mM MgCl2, pH 7.4). Bmax and KD values were calculated by Marquardt’s nonlinear least squares interpolation for single site binding models [[Marquardt, 1963]]. Ki values for different compounds were derived from IC50 values as described previously [[Linden, 1982]]. Data from replicate experiments are tabulated as means ± SEM.
as §3

T1 sequence (P30543 whole entry): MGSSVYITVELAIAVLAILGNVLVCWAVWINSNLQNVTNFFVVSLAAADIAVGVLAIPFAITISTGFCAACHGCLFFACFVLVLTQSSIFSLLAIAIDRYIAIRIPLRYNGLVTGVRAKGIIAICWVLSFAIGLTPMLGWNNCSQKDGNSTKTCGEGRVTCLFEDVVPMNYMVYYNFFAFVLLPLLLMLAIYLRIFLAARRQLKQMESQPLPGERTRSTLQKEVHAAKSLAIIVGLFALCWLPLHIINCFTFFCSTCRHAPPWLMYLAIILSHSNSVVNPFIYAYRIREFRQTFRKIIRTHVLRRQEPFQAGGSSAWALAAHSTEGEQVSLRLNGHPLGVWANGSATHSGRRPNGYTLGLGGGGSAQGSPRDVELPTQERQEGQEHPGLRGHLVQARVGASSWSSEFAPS

Row | Ki [1] [nM] | Ki [2] [nM] | Ki [3] [nM] | % displacement rA2A ([1]; rat striatal membranes, [3H]CGS 21680, at 10^−4) [%] | SMILES
1 | 128 ± 15 | 203 | 34.5 | – | CCCn1c(=O)c2[nH]c(-c3ccc(OCC(=O)OCC)cc3)nc2n(CCC)c1=O [Compound 4b]
2 | 227 ± 64 | 125 | 33.8 | – | CCCn1c(=O)c2[nH]c(-c3ccc(OCC(=O)NNC(C)=O)cc3)nc2n(CCC)c1=O [Compound 4e, 8-[4-[(Carboxymethyl)oxy]phenyl]-1,3-di-(n-propyl)xanthine N-Acetylhydrazide]
3 | 174 ± 32 | 219 | 97.8 | – | CCCn1c(=O)c2[nH]c(-c3ccc(OCC(=O)NNC(=O)CCC(=O)O)cc3)nc2n(CCC)c1=O [Compound 9, 8-[4-[(Carboxymethyl)oxy]phenyl]-1,3-di-(n-propyl)xanthine N-[(3-Carboxy)-n-propionyl]hydrazide]
4 | 126 ± 41 | 3030 | 33.8 | – | CCCn1c(=O)c2[nH]c(-c3ccc(OCC(=O)NN4C(=O)C(C)=C(C)C4=O)cc3)nc2n(CCC)c1=O [Compound 14, 8-[4-[(Carboxymethyl)oxy]phenyl]-1,3-di-(n-propyl)xanthine N,N-[(1,2-Dimethyl)maleyl]hydrazide]
5 | – | 8080 | 1900 | 36 ± 4 | CCCn1c(=O)[nH]c(=O)c2[nH]c(-c3ccc(OCC(=O)NN4C(=O)C(C)=C(C)C4=O)cc3)nc21 [Compound 15, 8-[4-[(Carboxymethyl)oxy]phenyl]-1H-3-(n-propyl)xanthine N,N-[(1,2-Dimethyl)maleyl]hydrazide]
6 | 392 ± 117 | 210 | 46.4 | – | CCCn1c(=O)c2[nH]c(-c3ccc(OCC(=O)NN4C(=O)c5ccccc5C4=O)cc3)nc2n(CCC)c1=O [Compound 21, 8-[4-[(Carboxymethyl)oxy]phenyl]-1,3-di-(n-propyl)xanthine N,N-Phthaloylhydrazide]

— publication PMC9196953 (Drug development research, 1999)
